Data reported in US10526271B2, “Compositions and methods related to half salts of herbicidal carboxylic acids” (Dow AgroSciences LLC, priority 2015, dated 2020).

Tests used:
[1] = Volatility by thermogravometric analysis (TGA) weight loss at elevated temperature; type: physicochemical; details: 120° C., linear region of weight loss curve
Experimental: The volatility of the 2,4-D potassium half salt (as a concentrated aqueous suspension) was compared to that of 2,4-D acid (as technical solid), 2,4-D ethylhexyl ester (EHE, as technical liquid), and 2,4-D dimethylammonium (DMA) and 2,4-D dimethylethanolammonium (DMEA) salts (both as concentrated aqueous solutions) by thermogravometric analysis (TGA) weight loss at elevated temperature. Each of the 2,4-D samples was added in turn (approximately 25-30 mg) to the reservoir cup of a TA Instruments Model 2050 TGA instrument. The temperature was maintained at 120° C. and the weight loss was recorded as a function of time.
For the water-containing samples, rapid weight loss was observed during water removal followed by a linear region (constant rate of loss). Linear curve fitting was applied in this region of the curve to determine rate of 2,4-D loss in μg/min.

redroot pigweed (AMARE) = test: Greenhouse postemergence weed control, redroot pigweed; type: in vivo; details: 800 g ae/ha, no adjuvant, 21 DAA
Experimental: (§1) Plant material was propagated in the Indianapolis greenhouses under warm temperature conditions of 26 to 28° C. and a 16 hour day length and 8 hour dark cycle. Natural light was supplemented with 1000-watt metal halide overhead lamps with an average illumination of 500 μE m−2 s−1 photosynthetic active radiation for 16 consecutive hours each day. Seeds of each species were planted in 10 cm square pots containing a potting soil, Metro-Mix 360®. Metro-mix 360® consists of Canadian sphagnum peat moss, coarse perlite, bark ash, a starter nutrient charge (with gypsum), a slow-release nitrogen fertilizer and dolomitic limestone. Plants were top watered prior to treatment and sub-irrigated after treatment. Plant material was fertilized three times a week with Jack's fertilizer solution (Jack's Professional 15-5-15 4 Ca 2 Mg fertilizer manufactured by JR PETERS INC.; 6656 Grant Way; Allentown, Pa. 18106). Appropriate amounts of herbicides were weighed and diluted with Indianapolis tap water.
(§2) All treatments were applied to selected plant species with a track sprayer (Generation III Research Sprayer manufactured by DeVries Manufacturing in Hollandale, Minn., USA) located in building 306, laboratory E1-483, at the Dow AgroSciences facility in Indianapolis, Ind. The track sprayer was calibrated to deliver 140 L/ha at 40 psi ([…]) pressure utilizing an 8002E even, flat fan nozzle. Track sprayer speed was set at 1.6 mph ([…]). Applications were made to replicates of each species in a randomized complete block design, with 4 replications per treatment.
(§3) All species were evaluated at 15 or 21 days after application (DAA). The treated plants and control plants were evaluated using a rating scale of 0-100%, wherein 0% indicates no injury or control of the vegetation and 100% indicates complete death of the plants.

[2] = system: common lambsquarters (CHEAL); test: Greenhouse postemergence weed control, common lambsquarters; type: in vivo; details: 800 g ae/ha, no adjuvant, 21 DAA
Experimental: as §1, §2, §3

common ragweed (AMBTR) = test: Greenhouse postemergence weed control, common ragweed; type: in vivo; details: 800 g ae/ha, no adjuvant, 21 DAA
Experimental: as §1, §2, §3

sicklepod (CASOB) = test: Greenhouse postemergence weed control, sicklepod; type: in vivo; details: 800 g ae/ha, no adjuvant, 21 DAA
Experimental: as §1, §2, §3

SMILES	Rate of Loss [1]	% Control AMARE (redroot pigweed (AMARE))	% Control CHEAL [2]	% Control AMBTR (common ragweed (AMBTR))	% Control CASOB (sicklepod (CASOB))
O=C(O)COc1ccc(Cl)cc1Cl [2,4-D Acid, 2,4-dichlorophenoxyacetic acid]	2.29 µg/min	–	–	–	–
C[N+](C)(C)CCO.O=C([O-])COc1ccc(Cl)cc1Cl [2,4-D Choline]	–	95%	74%	–	–
CNC.O=C(O)COc1ccc(Cl)cc1Cl [2,4-D DMA, 2,4-D dimethylammonium]	1.5 µg/min	91%	73%	100%	95%
CN(C)CCO.O=C(O)COc1ccc(Cl)cc1Cl [2,4-D DMEA, 2,4-D dimethylethanolammonium]	0.905 µg/min	–	–	–	–
CCCCC(CC)COC(=O)COc1ccc(Cl)cc1Cl (stereo not drawn) [2,4-D EHE, 2,4-D ethylhexyl ester]	11 µg/min	–	–	–	–
O=C(O)COc1ccc(Cl)cc1Cl.O=C([O-])COc1ccc(Cl)cc1Cl.[K+] [2,4-D K Half Salt, 2,4-D Potassium Half Salt]	0.132 µg/min	91%	84%	100%	100%
N.O=C(O)COc1ccc(Cl)cc1Cl.O=C(O)COc1ccc(Cl)cc1Cl [2,4-D NH4 half-salt]	–	91%	74%	100%	100%
N.O=C(O)COc1ccc(Cl)cc1Cl [2,4-D NH4]	–	95%	92%	99%	100%
O=C(O)COc1ccc(Cl)cc1Cl.O=C([O-])COc1ccc(Cl)cc1Cl.[Na+] [2,4-D Na half-salt, 2,4-D Sodium Half Salt]	–	92%	85%	100%	100%
